The results in this text go back to patent US8507445B2, “Compositions and methods of use of targeting peptides for diagnosis and therapy of human cancer” (Board of Regents, The University of Texas System, priority 2002, dated 2013).

In one test the test system is MDA-MB-435 cells. Kind of test: Enhancement of phage transduction by genotoxic agents or trans-complementation. Format: cell-based, human. The settings on record: cells infected with targeted phage, 72 hours post-infection; drugs 10 μM. How it is done:
Semi-confluent MDA-MB-435 cells were infected with 10^5 TU of phage per cell for 4 hours in serum free media, after which fresh medium supplemented with FCS was added (no phage were washed out or removed). In some experiments, a phage admixture of forward and reverse clones at 10^10 TU (forward/reverse molar ratio=1) was tested. Next, cells were incubated for 36 hours followed by the addition of genotoxic drugs (topotecan, 10 μM; cisplatin, 10 μM) or administration of UV radiation (15 J/m^2) with a cross-linker apparatus (UV Stratalinker Model 2400; Stratagene). At 72 hours post-infection, the cells were analyzed for transduction of a reporter gene (β-gal or GFP), and gene expression was normalized per cell number relative to controls.

Another test concerns prostate. Kind of test: In vivo phage display in a human patient, tripeptide motif analysis. The settings on record: motifs in peptides isolated from prostate, compared with unselected phage library. The text has this: A large-scale preparation of a CX7C (C, cysteine; X, any amino acid residue) phage display random peptide library was optimized to create the highest possible insert diversity (Pasqualini et al., 2000). The diversity of the library was about 2×10^8 and its final titer was about 10^12 transducing units (TU)/ml. For biopanning with human subjects, use of a large-scale phage display library (diversity about 2×10^8) is advantageous compared to the smaller scale libraries used in mouse studies. Short-term intravenous infusion of the phage library (a total dose of 10^14 phage TU suspended in 100 ml of saline) into the patient was followed by multiple representative tissue biopsies. Prostate and liver samples were obtained by needle biopsy under ultrasonographic guidance. Skin, fat tissue, and skeletal muscle samples were obtained by surgical excision. Bone marrow needle aspirates and core biopsies were also obtained. Histopathological diagnosis was determined by examination of frozen sections processed from tissues obtained at the bedside.
Triplicate samples were processed for host bacterial infection, phage recovery, and histopathological analysis. In brief, tissues were weighed, ground with a glass Dounce homogenizer, suspended in 1 ml of Dulbecco Modified Eagle's medium (DMEM) containing proteinase inhibitors (DMEM-prin; 1 mM PMSF, 20 μg/ml aprotinin, and 1 μg/ml leupeptin), vortexed, and washed three times with DMEM-prin. The human tissue homogenates were incubated with 1 ml of host bacteria (log phase E. coli K91kan; OD600˜2). Aliquots of the bacterial culture were plated onto Luria-Bertani agar plates containing 40 μg/ml tetracycline and 100 μg/ml of kanamycin. Plates were incubated overnight at 37° C. Bacterial colonies were processed for sequencing of phage inserts recovered from each tissue and from unselected phage library. Human samples were handled with universal blood and body fluid precautions.
A high-throughput character pattern recognition program (M.D. Anderson Cancer Center, Biostatistics, Houston, Tex.) was developed to automate the analysis of the peptide motifs derived from phage screenings. […]
In order to identify the motifs that were enriched in the screening, the count for each tripeptide motif within each tissue was compared with the count for that tripeptide motif within the unselected library. Starting from a CX7C peptide insert, counts were recorded for all overlapping interior tripeptide motifs, subject only to reflection and single-voting restrictions. […] The significance of association of a given allocation of counts was assessed by Fisher's exact test (one-tailed). […]

Test [1] concerns the target vascular endothelial growth factor receptor-1 (VEGFR1) (Homo sapiens, UniProt P17948). Description: Ligand-receptor binding assay in vitro with immobilized receptor. The conditions noted are these: recombinant VEGFR1. How it is done: (§1) Recombinant IL-11Rα vascular endothelial growth factor receptor-1 (VEGFR1) or leptin receptor (OB—R) were incubated with phage displaying the […] (SEQ ID NO:37) peptide. VEGFR1 was used as a representative vascular receptor, while OB—R was used because it shares a co-receptor with IL-11Rα. An unrelated phage clone displaying the peptide […] (SEQ ID NO:38) and insertless fd-tet phage were used as controls. […] Binding of […] (SEQ ID NO:37)-phage to IL-11Rα was specific, since it was inhibited by the native IL-11 ligand in a concentration-dependent manner (not shown). […] These observations with normal prostate tissues were followed by an examination of the expression of IL-11Rα in tumors, as discussed in the present Example.

Another test deals with T1, IL-11Rα (Homo sapiens, UniProt Q14626).
T1 sequence (Q14626 23-422): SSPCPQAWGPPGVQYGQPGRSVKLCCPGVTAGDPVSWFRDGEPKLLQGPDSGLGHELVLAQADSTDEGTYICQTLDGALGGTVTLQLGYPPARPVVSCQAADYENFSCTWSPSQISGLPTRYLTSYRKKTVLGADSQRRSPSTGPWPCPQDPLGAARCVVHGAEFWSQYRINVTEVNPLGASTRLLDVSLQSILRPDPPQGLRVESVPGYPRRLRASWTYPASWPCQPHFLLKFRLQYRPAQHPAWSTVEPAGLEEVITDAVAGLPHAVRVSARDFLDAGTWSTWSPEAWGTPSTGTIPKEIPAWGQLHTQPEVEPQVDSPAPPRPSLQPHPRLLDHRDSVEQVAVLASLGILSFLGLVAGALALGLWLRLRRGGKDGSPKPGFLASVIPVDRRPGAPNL
The test is described as above. The conditions noted are these: for phage binding to immobilized receptor: recombinant IL-11Rα. How it is done: as §1

The next test addresses leptin receptor (OB—R) (Homo sapiens, UniProt P48357). Described as above. The conditions noted are these: recombinant OB—R. How it is done: as §1
Test [2] relates to patient's serum antibodies, anti-GRP78 antibody, anti-CNVSDKSC antibodies. Kind of test: Cross-inhibition assay. The format is binding, human. The settings on record: anti-GRP78 and anti-CNVSDKSC antibodies. How it is done:
Microtiter 96-well plates were coated with 10 μg/ml recombinant GRP78 (Stressgen) or GST attached to […] (SEQ ID NO:39) in 100 mM NaHCO3 overnight at 4° C., washed and then blocked with blocking buffer (2% milk, 1% casein, 0.05% Tween-20 in PBS) for 2 hours at 37° C. To determine the inhibitory activities of GRP78 or GST-[…] (SEQ ID NO:39), patient serum (1:50), anti-GRP78 (1:1000), and anti-GST-[…] (1:20) were incubated with GRP78 (50-100 μg) or GST-[…] (SEQ ID NO:39) (100-300 μg). The mixtures were incubated for 1 hour at 37° C. prior to adding to the coated wells. After 1 hour of incubation at room temperature the wells were washed several times with PBST buffer (0.05% Tween-20 in PBS). Secondary antibodies conjugated to horseradish peroxidase were added at 1:5000 dilution, incubated for 30 minutes at room temperature and washed five times with PBST buffer. Finally, the substrate 3,3′,5,5′-Tetramethylbenzidine (TMB; Calbiochem) was added and incubated for 15 minutes at room temperature before stopping the reaction by addition of 0.5M H2SO4. Absorbance at 450 nm was determined in an automated ELISA reader (Bio-Tek).

The subject of test [3] is bone marrow metastasis from a prostate cancer. Kind of test: Immunohistochemical staining inhibition. Set-up: species or system human. The settings on record: GRP78 staining of bone marrow metastasis. How it is done: Paraffin sections (4 μm) were stained with purified biotinylated antibodies and peptide antibodies by immunoperoxidase detection using the Dako antigen retrieval kit and DAB (diaminobenzidine) as a substrate. All of the sections were counter-stained with hematoxylin. Purified IgGs were coupled to biotin and resolved by SDS-PAGE. The biotinylated immunopurified antibodies were used at a dilution of 1:60. Peptide C antibodies and purified pre-immune antibodies were used at 0.01 μg/μl. For the inhibition staining, peptide C antibodies were pre-incubated for 30 minutes at room temperature with the corresponding GST-peptide C (500 μg) prior to staining. For the GRP78 immunostaining, anti-GRP78 antibody (C-20) was used at 1:350 (Santa Cruz Biotechnology, Santa Cruz, Calif.). Peptide antibodies were generated in rabbits and purified using a T-gel immunoglobulin purification kit and protein G column (Pierce).

For the next test, the system named is skin. Kind of test: Phage overlay assay on human tissue sections. The format is binding. An excerpt:
(§2) To test the tissue specificity of the IL-11 peptide mimic, a phage overlay assay was developed to evaluate receptor-ligand interactions in tissue sections, using the motif RRAGGS (SEQ ID NO:34) (Arap et al., Nature Med. 8:121-127, 2002).

Another test concerns normal prostate. Kind of test: Phage overlay assay on human tissue sections. The format is binding.
Excerpt: as §2

vascular endothelial growth factor receptor-1 (VEGFR1), sequence (P17948 27-1338, species assumed): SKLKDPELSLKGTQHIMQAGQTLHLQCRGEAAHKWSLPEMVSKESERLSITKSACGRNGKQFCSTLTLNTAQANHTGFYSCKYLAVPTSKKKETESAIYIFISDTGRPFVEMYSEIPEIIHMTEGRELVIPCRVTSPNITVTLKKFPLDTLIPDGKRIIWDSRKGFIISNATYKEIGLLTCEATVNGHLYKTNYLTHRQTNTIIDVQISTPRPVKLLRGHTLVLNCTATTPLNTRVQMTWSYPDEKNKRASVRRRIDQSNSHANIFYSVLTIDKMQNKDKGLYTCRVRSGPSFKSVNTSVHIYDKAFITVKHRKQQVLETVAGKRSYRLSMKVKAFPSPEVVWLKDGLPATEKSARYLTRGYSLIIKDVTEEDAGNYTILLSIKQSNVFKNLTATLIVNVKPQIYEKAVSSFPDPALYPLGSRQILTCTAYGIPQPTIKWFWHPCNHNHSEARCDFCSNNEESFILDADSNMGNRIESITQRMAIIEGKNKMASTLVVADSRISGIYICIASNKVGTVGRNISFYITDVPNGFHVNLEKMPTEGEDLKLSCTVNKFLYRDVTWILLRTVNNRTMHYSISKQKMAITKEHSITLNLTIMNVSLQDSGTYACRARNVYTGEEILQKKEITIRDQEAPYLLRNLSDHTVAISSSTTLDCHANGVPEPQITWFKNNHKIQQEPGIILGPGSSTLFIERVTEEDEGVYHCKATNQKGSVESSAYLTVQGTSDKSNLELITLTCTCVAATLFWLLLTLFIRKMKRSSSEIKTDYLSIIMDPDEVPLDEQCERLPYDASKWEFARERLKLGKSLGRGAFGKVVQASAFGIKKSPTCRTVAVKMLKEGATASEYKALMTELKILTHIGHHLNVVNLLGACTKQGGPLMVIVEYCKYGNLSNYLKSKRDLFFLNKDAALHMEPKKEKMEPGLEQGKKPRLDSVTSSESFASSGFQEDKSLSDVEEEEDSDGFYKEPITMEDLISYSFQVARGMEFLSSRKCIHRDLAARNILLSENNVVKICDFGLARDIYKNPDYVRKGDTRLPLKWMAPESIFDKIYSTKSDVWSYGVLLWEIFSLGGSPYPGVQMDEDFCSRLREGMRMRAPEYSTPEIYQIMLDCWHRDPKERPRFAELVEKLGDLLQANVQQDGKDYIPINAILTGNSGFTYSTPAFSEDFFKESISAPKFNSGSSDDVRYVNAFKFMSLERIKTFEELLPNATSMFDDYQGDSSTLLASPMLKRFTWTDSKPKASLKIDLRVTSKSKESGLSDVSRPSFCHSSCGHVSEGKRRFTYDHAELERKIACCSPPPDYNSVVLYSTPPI
leptin receptor (OB—R), sequence (P48357 22-1165, species assumed): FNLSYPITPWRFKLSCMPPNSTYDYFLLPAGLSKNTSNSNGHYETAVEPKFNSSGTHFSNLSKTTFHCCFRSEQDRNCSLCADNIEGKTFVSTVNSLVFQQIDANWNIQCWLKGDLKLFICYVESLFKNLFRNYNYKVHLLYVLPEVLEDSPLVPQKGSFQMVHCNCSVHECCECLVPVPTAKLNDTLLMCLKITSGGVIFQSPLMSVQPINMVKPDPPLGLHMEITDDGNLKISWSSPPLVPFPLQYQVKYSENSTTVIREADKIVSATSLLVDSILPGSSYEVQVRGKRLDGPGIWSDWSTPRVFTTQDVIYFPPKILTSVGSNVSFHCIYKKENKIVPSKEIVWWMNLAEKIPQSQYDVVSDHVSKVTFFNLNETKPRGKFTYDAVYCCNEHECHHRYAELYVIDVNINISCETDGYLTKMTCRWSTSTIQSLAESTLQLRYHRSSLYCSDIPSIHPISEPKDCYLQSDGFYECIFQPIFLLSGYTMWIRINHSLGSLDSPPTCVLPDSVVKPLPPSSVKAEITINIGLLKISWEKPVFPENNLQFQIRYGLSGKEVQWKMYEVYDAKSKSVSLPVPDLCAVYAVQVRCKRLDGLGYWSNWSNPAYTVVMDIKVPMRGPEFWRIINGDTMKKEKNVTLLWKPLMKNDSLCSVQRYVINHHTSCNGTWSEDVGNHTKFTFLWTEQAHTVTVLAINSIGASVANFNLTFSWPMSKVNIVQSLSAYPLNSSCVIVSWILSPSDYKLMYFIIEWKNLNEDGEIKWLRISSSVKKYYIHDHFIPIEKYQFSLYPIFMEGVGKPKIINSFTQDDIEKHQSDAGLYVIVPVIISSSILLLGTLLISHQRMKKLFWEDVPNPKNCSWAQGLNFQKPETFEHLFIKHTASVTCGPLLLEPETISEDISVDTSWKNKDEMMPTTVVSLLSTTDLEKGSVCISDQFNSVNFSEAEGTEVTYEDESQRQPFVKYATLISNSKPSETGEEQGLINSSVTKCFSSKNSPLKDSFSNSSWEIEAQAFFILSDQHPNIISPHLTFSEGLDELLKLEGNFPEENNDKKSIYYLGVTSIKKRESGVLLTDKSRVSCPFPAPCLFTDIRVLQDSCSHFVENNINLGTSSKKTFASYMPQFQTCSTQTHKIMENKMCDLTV

For the molecule `N.N.[Cl][Pt][Cl]` [cisplatin], the “reporter gene transduction relative to controls” value in the test with MDA-MB-435 cells is on record as “several fold higher”.
Consider `CC[C@@]1(O)C(=O)OCc2c1cc1n(c2=O)Cc2cc3c(CN(C)C)c(O)ccc3nc2-1` [topotecan], for which the “reporter gene transduction relative to controls” value in the test with MDA-MB-435 cells is “several fold higher”.
For “AGG [tripeptide motif isolated from prostate]”, in the test on prostate, the “Motif Frequency” value is 2.5.
Turning to CGRRAGGSC, the “phage binding to immobilized receptor” value in test [1] is “Neither OB—R nor VEGFR1 showed binding”; at IL-11Rα, “significant amount of binding”; on leptin receptor (OB—R), “Neither OB—R nor VEGFR1 showed binding”.
As for CRVDFSKGC [reference compound], the “phage binding to immobilized receptor” value on IL-11Rα is listed as “Neither of the control phage exhibited selective binding”.
Regarding “EGR [tripeptide motif isolated from prostate]”, in the test on prostate, the “Motif Frequency” value turned out to be 1.0.
As to “GER [tripeptide motif isolated from prostate]”, in the test with prostate, the “Motif Frequency” value stood at 0.9.
Take “GRP78: recombinant 78 kDa glucose regulated protein (Stressgen)”: the “blocking of antibody binding” value in test [2] is “capable of blocking binding”. Besides, the inhibition of immunostaining result in [3] was “staining was inhibited”.
“GVL [tripeptide motif isolated from prostate]”: in the test on prostate, the “Motif Frequency” value came to 2.3.
Consider “HGGVG [motif of a control phage that localized to skin tissue, reference compound]”, for which the “phage binding to tissue section” value in the test with skin is on record as “specifically recognized blood vessels in the skin”; in the test with normal prostate, “did not bind to prostate tissue”.
As to “RRAGGS [prostate-targeting motif, IL-11 peptide mimic]”, in the test with normal prostate, the “phage binding to tissue section” value is “specifically bound to the endothelium and epithelium of normal prostate”.

B1: IL-11: native IL-11 ligand, cytokine (protein)
chain: PGPPPGPPRVSPDPRAELDSTVLLTRSLLADTRQLAAQLRDKFPADGDHNLDSLPTLAMSAGALGALQLPGVLTRLRADLLSYLRHVQWLRRAGGSSLKTLEPELGTLQARLDRLLRRLQLLMSRLALPQPPPDPPAPPLAPPSSAWGGIRAAHAILGGLHLTLDWAVRGLLLLKTRL
For the molecule B1, the “inhibition of CGRRAGGSC-phage binding to IL-11Rα” value with IL-11Rα (concentration of about 0.1 nM) is reported as ~100%.
